Where “and” joins values, the source holds several entries; their conditions need not be identical. Identical values can stand only once. Where only a bound is given, the exact number is not on record here.

This assay has as its system 885512-296-R-J2-PDC complex spheroid growth, % test/control. The experiment in a line: Anticancer human tumor 885512-296-R-J2-PDC patient-derived breast carcinoma cell line growth inhibition [AhR]. Conditions: for viability, T/C: stronger effect = lower value. An excerpt: Multicellular complex tumor spheroid response to aryl hydrocarbon receptor antagonists in combination with a variety of drugs and investigational agents in selected tumor cell lines
The current study was undertaken to assess response to aryl hydrocarbon receptor antagonists in combination with standard-of-care drugs and investigational agents in solid tumor complex spheroid models. Complex spheroids include a stromal component modeled by human endothelial cells (HUVEC) and fibroblasts modeled by human mesenchymal stem cells (MSCs). The concentration ranges selected for each drug and investigational agent were based upon clinically achievable concentrations if the clinical Cmax of the agent was known.
Compounds. The drugs and investigational agents: BAY 2416964 (NSC825713), GNF351 (NSC835774), CH-223191 (NSC835775), CPI-455 (NSC825282), aza-TdCyd (NSC777586), decitabine (NSC127716), belinostat (NSC758774), entinostat (NSC756642), pevonedistat (NSC761192), tazemetostat (NSC777109), talazoparib (NSC765396), olaparib (NSC753686), selinexor (NSC780203), nedisertib (M3814, NSC802822), bortezomib (NSC756655), venetoclax (NSC766270), doxorubicin (NSC123127), elimusertib (BAY189344, NSC800525), ceralasertib (AZD6738, NSC777638), TAK-243 (NSC785004), alisertib (NSC759677), etoposide (NSC141540), topotecan (NSC609699), eribulin (NSC707389), gemcitabine (NSC613327), carboplatin (NSC241240), cisplatin (NSC119875), and SN-38 (NSC673596) were obtained from the National Cancer Institute (NCI) Developmental Therapeutics Program Chemical Repository (32). The FDA-approved anticancer drug set is available from the Developmental Therapeutics Program at https://dtp.cancer.gov/organization/dscb/obtaining/available plates.htm. […] The stock solutions were prepared in dimethyl sulfoxide (DMSO, Sigma-Aldrich, St. Louis, MO, cat. D2650), except for the platinum compounds which were prepared in saline (Quality Biological, Gaithersburg, MD, cat. 114-055-101), at 800-fold the tested concentration and stored at -70 degrees C prior to their use. All drugs and investigational agents were tested over a range starting from a high concentration at or near the clinical Cmax and decreasing in half-log increments. If the clinical Cmax for an agent had not been determined, the highest concentration tested was 10 microM (Table 1).
Cell Culture. All cells were maintained in an incubator at 37 degrees C and 5% CO2 with 95% humidity. The PDC lines were cultured according to standard operating procedures established by the NCI PDMR (https://pdmr.cancer.gov). Briefly, all PDCs were thawed and cultured in Matrigel-coated flasks prepared with a working solution of 1X Ham's F-12 nutrient mix, without supplementation (Invitrogen, Waltham, MA, cat. 11765054), 100 U/mL penicillin-streptomycin (Invitrogen, cat. 15140122), and 2.5% Matrigel (Corning Inc., Corning, NY, cat. 354248) for the first three passages. All PDCs were cultured in complete DMEM/F-12 media containing advanced DMEM/F-12 (Invitrogen, cat. 12634028), 4.9% defined fetal bovine serum, heat inactivated (HyClone Laboratories Inc., Logan, UT, cat. SH30070.03HI), 389 ng/mL hydrocortisone (Sigma-Aldrich, cat. H4001), 9.7 ng/mL human EGF recombinant protein (Invitrogen, cat. PHG0313), 23.4 microg/mL adenine (Sigma-Aldrich, cat. A2786), 97.3 U/mL penicillin-streptomycin (Invitrogen, cat. 15140122), 1.9 mM L-glutamine (Invitrogen, cat. 25030081), and 9.7 microM Y-27632 dihydrochloride (Tocris Bioscience, Bristol, United Kingdom, cat. 1254). The PDCs were cultured in complete DMEM/F12 media without 10 microM Y-27632 dihydrochloride for at least two passages prior to the screen. The established cell lines NCI-H1341 and […] were cultured in DMEM/F-12, HEPES (Invitrogen, cat. 11330032), 5% defined fetal bovine serum (HyClone Laboratories Inc., cat. SH30070.03), ITS premix universal culture supplement [insulin (5 microg/mL), transferrin (5 microg/mL), and selenious acid (5 ng/mL)] […]

Setting [1] is: curve of first compound, second compound 0.1 µM.
Where [2] appears, read: curve of first compound, second compound 0.316 µM.
Setting [3] is: curve of first compound, second compound 1 µM.
Setting [4] is: curve of first compound, second compound 3.16 µM.
The mark [5] stands for this setting: curve of first compound, second compound 10 µM.
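Also: spheroids exposed to compounds for seven days.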

A word on the IC50: it is the concentration needed to halve the response being measured. For orientation: viability, T/C means the ratio of treated to control. On to `CC(C)CC(NC(=O)C(Cc1ccccc1)NC(=O)c1cnccn1)B(O)O` (stereo not drawn) + Cc1cncc(-c2nc(NCCc3c[nH]c4ccccc34)c3ncn(C(C)C)c3n2)c1, for which the half-inhibitory concentration (IC50) is, setting by setting: under setting [1], 0.00675 µM; under setting [2], 0.00648 µM; under setting [3], 0.0056 µM; under setting [4], 0.00363 µM; under setting [5], under 0.000949 µM. Also, the viability, T/C reads like this: (second compound 0.1 µM, first compound 0.000949 µM) 112%; (second compound 0.1 µM, first compound 0.003 µM) 114%; (second compound 0.1 µM, first compound 0.00949 µM) 23.6%; (second compound 0.1 µM, first compound 0.03 µM) 1.75%; (second compound 0.1 µM, first compound 0.0949 µM) 0.64%; (second compound 0.1 µM, first compound 0.3 µM) 0.17%. Moreover, the viability, T/C is 103% (second compound 0.316 µM, first compound 0.000949 µM); 99% (second compound 0.316 µM, first compound 0.003 µM); 25.7% (second compound 0.316 µM, first compound 0.00949 µM); 1.08% (second compound 0.316 µM, first compound 0.03 µM); 0.32% (second compound 0.316 µM, first compound 0.0949 µM); 0.14% (second compound 0.316 µM, first compound 0.3 µM). Further, the viability, T/C was 79.2% (second compound 1 µM, first compound 0.000949 µM); 87.7% (second compound 1 µM, first compound 0.003 µM); 21.8% (second compound 1 µM, first compound 0.00949 µM); 0.9% (second compound 1 µM, first compound 0.03 µM); 0.08% (second compound 1 µM, first compound 0.0949 µM); 0.13% (second compound 1 µM, first compound 0.3 µM). Also, the viability, T/C reads like this: (second compound 3.16 µM, first compound 0.000949 µM) 52.5%; (second compound 3.16 µM, first compound 0.003 µM) 61%; (second compound 3.16 µM, first compound 0.00949 µM) 16.3%; (second compound 3.16 µM, first compound 0.03 µM) 0.59%; (second compound 3.16 µM, first compound 0.0949 µM) 0.07%; (second compound 3.16 µM, first compound 0.3 µM) 0.16%. Further, the viability, T/C reads like this: (second compound 10 µM, first compound 0.000949 µM) 16.7%; (second compound 10 µM, first compound 0.003 µM) 16.9%; (second compound 10 µM, first compound 0.00949 µM) 1.8%; (second compound 10 µM, first compound 0.03 µM) 0.43%; (second compound 10 µM, first compound 0.0949 µM) 0.16%; (second compound 10 µM, first compound 0.3 µM) 0.22%.

On to `Cc1ccccc1N=Nc1ccc(NC(=O)c2ccnn2C)c(C)c1`, for which the viability, T/C (compound 10 µM) is 53.1% [middle of 21 runs].

As to `Cn1ncnc1C1c2n[nH]c(=O)c3cc(F)cc(c23)NC1c1ccc(F)cc1` (stereo not drawn), the viability, T/C (compound 0.000316 µM) was 96.9% and 103% and 101%; the viability, T/C (compound 0.001 µM) is 88.9% and 93.1% and 107%; the viability, T/C (compound 0.00316 µM) is 90.6% and 91.2% and 108%; the viability, T/C (compound 0.01 µM) is 88.6% and 93.7% and 89%; the viability, T/C (compound 0.0316 µM) is 79.9% and 75.4% and 87.3%; the viability, T/C (compound 0.1 µM) is 58% and 57% and 53.9%. For the same compound, the IC50 (curve of compound) is over 0.1 µM.

For `NS(=O)(=O)OCC1CC(n2ccc3c(NC4CCc5ccccc54)ncnc32)CC1O` (stereo not drawn) + Cc1cncc(-c2nc(NCCc3c[nH]c4ccccc34)c3ncn(C(C)C)c3n2)c1, the IC50 is 0.0904 µM under setting [1]; 0.0894 µM under setting [2]; 0.0774 µM under setting [3]; 0.0436 µM under setting [4]; under 0.0316 µM under setting [5]. Further, the viability, T/C runs as follows: (second compound 0.1 µM, first compound 0.0316 µM) 96.2%; (second compound 0.1 µM, first compound 0.1 µM) 45.6%; (second compound 0.1 µM, first compound 0.316 µM) 16.5%; (second compound 0.1 µM, first compound 1 µM) 8.26%; (second compound 0.1 µM, first compound 3.16 µM) 5.94%; (second compound 0.1 µM, first compound 10 µM) 6.36%. In addition, the viability, T/C reads like this: (second compound 0.316 µM, first compound 0.0316 µM) 89.7%; (second compound 0.316 µM, first compound 0.1 µM) 45.6%; (second compound 0.316 µM, first compound 0.316 µM) 17.4%; (second compound 0.316 µM, first compound 1 µM) 6.34%; (second compound 0.316 µM, first compound 3.16 µM) 6.04%; (second compound 0.316 µM, first compound 10 µM) 5.52%. Also, the viability, T/C is 81.3% (second compound 1 µM, first compound 0.0316 µM); 41% (second compound 1 µM, first compound 0.1 µM); 13.9% (second compound 1 µM, first compound 0.316 µM); 5.67% (second compound 1 µM, first compound 1 µM); 4.18% (second compound 1 µM, first compound 3.16 µM); 4.92% (second compound 1 µM, first compound 10 µM). Moreover, the viability, T/C reads like this: (second compound 3.16 µM, first compound 0.0316 µM) 58.5%; (second compound 3.16 µM, first compound 0.1 µM) 28%; (second compound 3.16 µM, first compound 0.316 µM) 8.09%; (second compound 3.16 µM, first compound 1 µM) 3.67%; (second compound 3.16 µM, first compound 3.16 µM) 3.02%; (second compound 3.16 µM, first compound 10 µM) 2.73%. Also, the viability, T/C is 10.3% (second compound 10 µM, first compound 0.0316 µM); 8.3% (second compound 10 µM, first compound 0.1 µM); 3.54% (second compound 10 µM, first compound 0.316 µM); 2.33% (second compound 10 µM, first compound 1 µM); 1.76% (second compound 10 µM, first compound 3.16 µM); 1.73% (second compound 10 µM, first compound 10 µM).

The record behind these values is PubChem BioAssay AID1919006 (Molecular Pharmacology Branch, DTP, NCI, 2023).
